One test deals with E. coli. Briefly: MIC test, multi-resistant E. coli. The test is classed as cell-based. The conditions noted are these: multi-resistant strain; averages of multiple test runs; log2 dilutions from 250 μg/ml. The procedure: (§1) The activities of the compounds were tested in two different screening systems. The antibacterial and antifungal activities were examined by means of an MIC test, MIC standing for “minimal inhibitory concentration” and referring to the lowest concentration of a substance at which no proliferation of microorganisms can be observed with the naked eye. The MIC is determined by means of a so called titration method in which the substance is diluted and, subsequently, the pathogen is added to it.
(§2) Usually, this method is applied in order to determine the concentration of an antibiotic which only just inhibits the growth of a bacterial strain. The MIC is indicated in micrograms per milliliter (μg/ml), and the dilutions are conventionally carried out in log2 steps. Herein, a starting concentration of 250 μg/ml was diluted several times, to the double volume in each case, resulting in test concentrations of 250 μg/ml, 125 μg/ml, 62.5 μg/ml, 31.2 μg/ml, 15.6 μg/ml, 7.8 μg/ml, etc. Thus, lower values indicate a better activity as an anti-infective.
(§3) The tests were carried out according to the standards of EUCAST (European Committee for Antimicrobial Susceptibility Testing) and according to the AFST-protocol (“Antifungal Susceptibility Testing” protocol) of the European Society of Clinical Microbiology and Infectious Diseases (ESCMID).
(§4) In the following Table 3, the test results indicating the anti-infective action of altersolanol M, alterporriol I and J as well as of some known and structurally similar comparative substances against some multi-resistant bacteria and fungi (all of which were kindly placed at our disposal by Prof Georgopulos from the Medical University of Vienna). The data constituting averages of the values obtained in multiple test runs.

Test [1] concerns Enterococcus faecalis or faecium. As to the kind of experiment: MIC test, multi-resistant Enterococcus. The test is classed as cell-based. The note with it: multi-resistant strain; averages of multiple test runs; log2 dilutions from 250 μg/ml. The method, then:
as §1, §2, §3, §4

Test [2] deals with methicillin-resistant Staphylococcus aureus. As to the kind of experiment: MIC test, MRSA. The test is classed as cell-based. The note with it: for MIC: Staphylococcus aureus, MRSA, read-out: MHK values MRSA (methicillin-resistant Staphylococcus aureus). The method, then: as §1, §2, §3, §4
In another test the test system is Streptococcus pneumoniae. As to the kind of experiment: MIC test, multi-resistant Streptococcus pneumoniae. The note with it: for MHK values STR (Streptococcus pneumoniae): multi-resistant strain, averages of multiple test runs, log2 dilutions from 250 μg/ml. It counts as cell-based. The method, then:
as §1, §2, §3, §4

For a further test, the system named is Staphylococcus epidermis. As to the kind of experiment: MIC test, multi-resistant Staphylococcus epidermis. It counts as cell-based. The note with it: for MIC: Staphylococcus, read-out: MHK values SE (Staphylococcus epidermis). The method, then: as §1, §2, §3, §4
For a further test, the system named is Acinetobacter baumanii. Briefly: MIC test, multi-resistant Acinetobacter baumanii. The test is classed as cell-based. The conditions noted are these: multi-resistant strain; averages of multiple test runs; log2 dilutions from 250 μg/ml. The method, then: as §1, §2, §3, §4
In test [3] the test system is Aspergillus fumigatus or faecalis. Briefly: MIC test (antifungal), Aspergillus. It counts as cell-based. The note with it: multi-resistant strain; averages of multiple test runs; log2 dilutions from 250 μg/ml. The procedure:
as §1, §2, §3, §4

The subject of the next test is bacteria and fungi. The conditions noted are these: Aly et al., Phytochemistry 69, 1716-1725; cited from earlier work.
For test [4] the following is noted: Yagi et al., Phytochemistry 34(4), 1005-1009 (1993); cited from earlier work.
The next test relates to Klebsiella sp. As to the kind of experiment: MIC test, multi-resistant Klebsiella sp. The test is classed as cell-based. The note with it: multi-resistant strain; averages of multiple test runs; log2 dilutions from 250 μg/ml. The method, then: as §1, §2
(§5) The tests were carried out according to the standards of EUCAST (European Committee for Antimicrobial Susceptibility Testing) and according to the AFST-protocol (“Antifungal Susceptibility Testing” protocol) of the European Society of Clinical Microbiology and Infectious Diseases (ESCMID). […]

Test [5] concerns Staphylococcus aureus or methicillin-resistant Staphylococcus aureus. The note with it: Xu et al. 2008; Sommart et al. 2008; cited from earlier work.
A further test deals with Pseudomonas aeruginosa. Briefly: MIC test, multi-resistant Pseudomonas aeruginosa. The test is classed as cell-based. The note with it: multi-resistant strain; averages of multiple test runs; log2 dilutions from 250 μg/ml. The procedure: as §1, §2, §5
Setting [6] is: multi-resistant strain, averages of multiple test runs, log2 dilutions from 250 μg/ml.
Where [7] appears, read: verbal summary of the MIC test series.

In brackets after ≈: the same amount, converted by molar mass. Where two headings read alike, the source gives them in different places.

With `COc1cc(O)c(C(=O)O)c(-c2cc(O)c(O)cc2C)c1` [Altenusin], the “MHK values EC (E. coli)” value in the test on E. coli was 62.5 µg/mL. In addition, the “MHK values EK (Enterococcus faecalis or faecium)” value (from here on “MHK values EK”) in test [1] came out at 62.5 µg/mL. Further, the MIC (in test [2]; in the test with Staphylococcus epidermis) was 31.2 µg/mL (≈ 107 µM) in each case. Moreover, in the test on Streptococcus pneumoniae, the “MHK values STR (Streptococcus pneumoniae)” value (“MHK values STR” below) came out at 31.2 µg/mL. For the same molecule, the “MHK values AB (Acinetobacter baumanii)” value with Acinetobacter baumanii was 62.5 µg/mL.

As to `COc1cc(O)c2c(c1)C(=O)C1=C(C2=O)[C@H](O)[C@@H](O)[C@@](C)(O)[C@@H]1O` [Altersolanol A, 7-methoxy-2-methyl-(1R,2S,3R,4S)-1,2,3,4-tetrahydro-1,2,3,4,5-pentahydroxy-anthracene-9,10-dione], the “MHK values EC (E. coli)” value in the test on E. coli is 62.5 µg/mL. In addition, in test [1], the “MHK values EK” value is 15.6 µg/mL. For the same molecule, the MIC (in test [2]; with Staphylococcus epidermis (setting [6])) was 7.8 µg/mL (≈ 23.2 µM) throughout. Besides, the “MHK values STR” value in the test on Streptococcus pneumoniae amounted to 7.8 µg/mL. The “MHK values AB (Acinetobacter baumanii)” value with Acinetobacter baumanii was determined as 62.5 µg/mL. Also, the “MHK values ASP (Aspergillus fumigatus or faecalis)” value (“MHK values ASP” below) in test [3] came out at 7.8 µg/mL. Besides, the “activity against bacteria and fungi” value in the test on bacteria and fungi is listed as “most efficient of the tested substances”. Besides, the anti-microbial activity entry in [4] was “anti-microbial activity”.

With `COc1cc(O)c2c(c1)C(=O)[C@H]1C[C@](C)(O)[C@H](O)C[C@@H]1[C@H]2O` [Altersolanol J], the “MHK values KL (Klebsiella sp.)” value in the test with Klebsiella sp. was 125 µg/mL. For the same molecule, the “MHK values EK” value in test [1] came out at 31.2 µg/mL. The “MHK values MRSA (methicillin-resistant Staphylococcus aureus)” value in test [2] (setting [6]) was determined as 62.5 µg/mL. In the test on Streptococcus pneumoniae, the “MHK values STR” value is 15.6 µg/mL. Further, the “MHK values SE (Staphylococcus epidermis)” value with Staphylococcus epidermis (setting [6]) stood at 62.5 µg/mL. The “MHK values AB (Acinetobacter baumanii)” value in the test on Acinetobacter baumanii was 125 µg/mL. The “MHK values ASP” value in [3] is 125 µg/mL. Further, the “activity against bacteria and fungi” value with bacteria and fungi is recorded as “do not show any activity”.

In the case of `COc1cc(O)c2c(c1)[C@H](O)[C@@H]1[C@@H](C2=O)[C@H](O)[C@@H](O)[C@@](C)(O)[C@@H]1O` [Ampelanol], in the test with bacteria and fungi, the “activity against bacteria and fungi” value was “do not show any activity”.

`COC1=CC(=O)c2c(O)c3c(c(O)c2C1=O)C[C@](C)(O)[C@H](O)[C@H]3O` [Bostrycin]: the MIC (in [2] (setting [6]); in the test with Staphylococcus epidermis (setting [6])) was 125 µg/mL (≈ 372 µM) in each case. For the same molecule, in the test with Streptococcus pneumoniae, the “MHK values STR” value worked out at 62.5 µg/mL. Further, the “MHK values AB (Acinetobacter baumanii)” value with Acinetobacter baumanii was 125 µg/mL.

Regarding `COc1cc(O)c2c(c1)C(=O)[C@@H]1[C@H](C[C@@H](O)[C@@](C)(O)[C@@H]1O)[C@H]2O` [Example 2, (1R,2R,3R,4aS,9aR,10R)-1,2,3,5,10-pentahydroxy-7-methoxy-2-methyl-1,2,3,4,4a,9a-hexahydro-9H,10H-anthracen-9-one], the “MHK values EK” value in test [1] turned out to be 31.2 µg/mL. For the same molecule, the MIC (in [2] (setting [6]); in the test with Staphylococcus epidermis (setting [6])) was 31.2 µg/mL (≈ 96.2 µM) in each case. Moreover, in the test with Streptococcus pneumoniae, the “MHK values STR” value was 31.2 µg/mL. Moreover, the “MHK values ASP” value in [3] was 62.5 µg/mL.

With `COc1cc(O)c2c(c1)[C@H](O)[C@@H]1[C@H](C[C@@H](O)[C@@](C)(O)[C@@H]1O)C2=O` [Example 3, (2R,3R,4R,4aS,9aS,10R)-2,3,4,8,10-pentahydroxy-6-methoxy-3-methyl-1,2,3,4,4a,9a-hexahydro-9H,10H-anthracen-9-one], in [1], the “MHK values EK” value was found to be 7.8 µg/mL. The MIC (in test [2] (setting [6]); in the test with Staphylococcus epidermis (setting [6])) was 7.8 µg/mL (≈ 24 µM) each time. In the test with Streptococcus pneumoniae, the “MHK values STR” value was 7.8 µg/mL. In addition, the “MHK values AB (Acinetobacter baumanii)” value in the test with Acinetobacter baumanii turned out to be 7.8 µg/mL. For the same molecule, the “MHK values ASP” value in [3] is 31.2 µg/mL.

Regarding `COc1cc2c(c(O)c1-c1c(OC)cc(O)c3c1C(=O)C1=C(C3=O)[C@H](O)[C@@H](O)[C@@](C)(O)[C@H]1O)C(=O)c1cc(O)c(C)cc1C2=O` [Example 4, 8-(1,7-dihydroxy-6-methyl-3-methoxy-9,10-dioxo-9H,10H-anthracen-2-yl)-(1S,2S,3R,4S)-1,2,3,4,5-pentahydroxy-7-methoxy-2-methyl-1,2,3,4-tetrahydro-9H,10H-anthracen-9,10-dione], in [1], the “MHK values EK” value amounted to 7.8 µg/mL. The MIC (in [2]; in the test with Staphylococcus epidermis (setting [6])) was 7.8 µg/mL (≈ 12.6 µM) each time. Also, the “MHK values STR” value in the test on Streptococcus pneumoniae was 7.8 µg/mL. For the same molecule, in test [3], the “MHK values ASP” value was determined as 125 µg/mL.

`COc1cc(O)c2c(c1O)[C@H](O)[C@H]1C[C@](C)(O)[C@H](O)C[C@@H]1C2=O` [Example 5, (2R,3S,4aS,9aS,10R)-2,3,5,8,10-penta-hydroxy-6-methoxy-3-methyl-1,2,3,4,4a,9a-hexahydro-9H,10H-anthracen-9-one]: the “MHK values EK” value in [1] is 125 µg/mL. Further, the MIC (in [2] (setting [6]); in the test on Staphylococcus epidermis (setting [6])) was 15.6 µg/mL (≈ 48.1 µM) in each case. Moreover, the “activity against methicillin-resistant Staphylococcus aureus, in words” value in test [2] (setting [7]) is given as “very good activity”. For the same molecule, the “MHK values STR” value in the test with Streptococcus pneumoniae was determined as 7.8 µg/mL. The “activity against Streptococcus pneumoniae, in words” value in the test with Streptococcus pneumoniae (setting [7]) was “excellent effectiveness”. Moreover, the “MHK values ASP” value in test [3] was determined as 31.2 µg/mL. Moreover, the “effectiveness against Staphylococcus aureus or methicillin-resistant Staphylococcus aureus” value in test [5] is “slight effectiveness”.

`COc1cc(O)c2c(c1)C(=O)c1cc(C)c(O)cc1C2=O` [Macrosporin]: in the test with E. coli, the “MHK values EC (E. coli)” value is 62.5 µg/mL. The MIC (in test [2] (setting [6]); in the test on Staphylococcus epidermis (setting [6])) was 62.5 µg/mL (≈ 220 µM) each time. Moreover, the “MHK values AB (Acinetobacter baumanii)” value with Acinetobacter baumanii amounted to 125 µg/mL.

In the case of `COc1cc(O)c2c(c1)C(=O)C1=C(C[C@@H](O)[C@@](C)(O)C1)C2=O` [altersolanol B], the anti-microbial activity entry in [4] is listed as “anti-microbial activity”.

In the case of `COc1cc(O)c2c(c1)C(=O)C1=C(C[C@@H](O)[C@@](C)(O)[C@@H]1O)C2=O` [altersolanol C], the anti-microbial activity entry in test [4] was “anti-microbial activity”.

For Alterporriol A + B, the “MHK values EK” value in test [1] turned out to be 15.6 µg/mL. In addition, the “MHK values MRSA (methicillin-resistant Staphylococcus aureus)” value in test [2] (setting [6]) amounted to 15.6 µg/mL. Besides, in the test on Streptococcus pneumoniae, the “MHK values STR” value came to 7.8 µg/mL. The “MHK values SE (Staphylococcus epidermis)” value in the test with Staphylococcus epidermis (setting [6]) came to 15.6 µg/mL. The “MHK values AB (Acinetobacter baumanii)” value with Acinetobacter baumanii is 125 µg/mL. Further, in test [3], the “MHK values ASP” value amounted to 62.5 µg/mL.

Take Indole carbaldehyde (carboxaldehyde): in the test with Pseudomonas aeruginosa, the “MHK values PS (Pseudomonas aeruginosa)” value was found to be 125 µg/mL. In addition, the “MHK values STR” value in the test with Streptococcus pneumoniae was found to be 62.5 µg/mL. Besides, the “MHK values AB (Acinetobacter baumanii)” value in the test with Acinetobacter baumanii was determined as 125 µg/mL.

Macrosporin sulfate: the “MHK values STR” value in the test on Streptococcus pneumoniae worked out at 31.2 µg/mL. Further, the “MHK values AB (Acinetobacter baumanii)” value in the test with Acinetobacter baumanii amounted to 125 µg/mL.

Consider alterporriols D and E, for which the “activity against bacteria and fungi” value in the test on bacteria and fungi is “do not show any activity”.

Consider altersolanol D, for which the anti-microbial activity entry in test [4] is given as “completely ineffective”.

Turning to altersolanol F, the anti-microbial activity entry in test [4] is “completely ineffective”.

These data come from patent US20120129949A1, “Use of Anthracene Derivatives as Anti-Infectives” (SEALIFE PHARMA GMBH, priority 2009, published 2012).
